This is an account of results in patent publication US10189841B2, “Purinones as ubiquitin-specific protease 1 inhibitors” (Forma Therapeutics, Inc., priority 2015, dated 2019).

pIC50: −log10 of the molar value.

USP1 (construct USP1 (I-785, GG670, 671AA)/UAF1 (I-677)-Flag), sequence (O94782 whole entry G670A/G671A): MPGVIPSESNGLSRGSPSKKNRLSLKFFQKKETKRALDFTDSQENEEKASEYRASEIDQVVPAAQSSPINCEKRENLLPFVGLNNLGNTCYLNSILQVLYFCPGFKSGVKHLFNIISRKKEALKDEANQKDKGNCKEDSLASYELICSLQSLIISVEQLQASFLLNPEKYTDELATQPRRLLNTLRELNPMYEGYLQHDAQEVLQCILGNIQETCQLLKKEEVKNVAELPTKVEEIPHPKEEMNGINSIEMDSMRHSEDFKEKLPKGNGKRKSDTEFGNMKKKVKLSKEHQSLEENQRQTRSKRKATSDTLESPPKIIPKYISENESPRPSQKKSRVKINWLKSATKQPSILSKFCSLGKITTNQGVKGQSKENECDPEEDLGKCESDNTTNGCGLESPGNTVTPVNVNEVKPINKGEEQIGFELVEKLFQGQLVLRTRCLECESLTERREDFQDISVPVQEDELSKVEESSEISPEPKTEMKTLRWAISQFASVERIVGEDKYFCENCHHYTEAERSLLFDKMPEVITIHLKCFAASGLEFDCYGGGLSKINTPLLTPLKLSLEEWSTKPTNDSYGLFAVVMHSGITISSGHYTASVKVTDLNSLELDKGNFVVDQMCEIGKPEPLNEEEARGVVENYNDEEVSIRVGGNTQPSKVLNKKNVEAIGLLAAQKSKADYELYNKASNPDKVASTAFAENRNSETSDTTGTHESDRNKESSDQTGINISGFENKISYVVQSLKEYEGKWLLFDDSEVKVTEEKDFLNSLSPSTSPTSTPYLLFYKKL
USP1 (construct USP1 (I-785, GG670, 671AA)/UAF1 (I-677)-Flag), sequence (Q8TAF3 whole entry partner): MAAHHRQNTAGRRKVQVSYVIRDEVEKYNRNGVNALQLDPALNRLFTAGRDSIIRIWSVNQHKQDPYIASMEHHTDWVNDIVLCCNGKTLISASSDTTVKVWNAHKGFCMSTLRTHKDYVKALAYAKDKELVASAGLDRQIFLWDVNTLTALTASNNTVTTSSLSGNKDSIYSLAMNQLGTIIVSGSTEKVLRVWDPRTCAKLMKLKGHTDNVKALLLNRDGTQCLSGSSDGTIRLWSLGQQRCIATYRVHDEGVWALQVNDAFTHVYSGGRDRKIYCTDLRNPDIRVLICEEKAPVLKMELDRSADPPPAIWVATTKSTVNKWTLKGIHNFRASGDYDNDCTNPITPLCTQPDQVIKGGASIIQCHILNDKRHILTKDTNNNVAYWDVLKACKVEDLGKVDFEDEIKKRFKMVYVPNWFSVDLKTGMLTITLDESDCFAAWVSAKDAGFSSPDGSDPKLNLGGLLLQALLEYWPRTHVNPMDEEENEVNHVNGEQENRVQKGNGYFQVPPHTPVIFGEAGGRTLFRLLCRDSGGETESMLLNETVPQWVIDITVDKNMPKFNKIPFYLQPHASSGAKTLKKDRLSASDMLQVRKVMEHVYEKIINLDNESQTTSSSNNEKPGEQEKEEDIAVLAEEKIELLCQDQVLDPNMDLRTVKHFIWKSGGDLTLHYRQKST

The target of the test is USP1 (construct USP1 (I-785, GG670, 671AA)/UAF1 (I-677)-Flag) (Homo sapiens (Human), UniProt O94782, G670A/G671A). Briefly: Ubiquitin-Rhodamine 110 assay for USP1 activity. It is filed as biochemical. As to conditions: USP1/UAF1 25 pM, Ub-Rh110 25 nM, 30 min preincubation. In short, it runs like this:
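Two formats with the USP1/UAF1 complex and 25 nM ubiquitin-rhodamine 110 in pH 8.0 Tris buffer with calcium, glutathione and detergent. Single-point screening used 10 µM, 100 pM enzyme and 45 min. Inhibition was set against no-enzyme and DMSO wells.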
On to `Cc1cn(C)c(N2CCC(Cn3c(=O)n(C)c4cnc(-c5ccccc5C(C)C)nc43)CC2)n1` [Compound I-501, 9-((1-(1,4-Dimethyl-1H-imidazol-2-yl)piperidin-4-yl)methyl)-2-(2-isopropylphenyl)-7-methyl-7,9-dihydro-8H-purin-8-one], for which the pIC50 (in general, −log10 of the IC50, conventionally taken in molar units) was 6.70 to 7.30. In the case of `CC(C)c1ccccc1-c1ncc2[nH]c(=O)n([C@@H](C)c3ccc(-n4cccn4)cc3)c2n1` [Compound I-157, (S)-9-(1-(4-(1H-pyrazol-1-yl)phenyl)ethyl)-2-(2-isopropylphenyl)-7,9-dihydro-8H-purin-8-one] it was 6.70 to 7.30. In the case of `CC(C)Oc1ccc(-c2ncc3[nH]c(=O)n(Cc4ccc(-c5nc(C(F)(F)F)cn5C)cc4)c3n2)c(F)n1` [Compound I-74, 2-(2-fluoro-6-isopropoxypyridin-3-yl)-9-(4-(1-methyl-4-(trifluoromethyl)-1H-imidazol-2-yl)benzyl)-7,9-dihydro-8H-purin-8-one] it was 5.70 to 6.70; in that of `CC(C)c1ccccc1-c1ncc2[nH]c(=O)n(Cc3ccc(C(=O)N4CCCCC4C)cc3)c2n1` (stereo not shown) [Compound I-398, 2-(2-isopropylphenyl)-9-(4-(2-methylpiperidine-1-carbonyl)benzyl)-7,9-dihydro-8H-purin-8-one], greater than 7.30. In the case of `CC(C)c1ncccc1-c1ncc2[nH]c(=O)n(Cc3ccc(-c4nc(C(F)(F)F)cn4C4CN(C)C4)cc3)c2n1` [Compound I-438, 2-(2-Isopropylpyridin-3-yl)-9-(4-(1-(1-methylazetidin-3-yl)-4-(trifluoromethyl)-1H-imidazol-2-yl)benzyl)-7,9-dihydro-8H-purin-8-one] it was greater than 7.30; in that of `CC(C)c1ccccc1-c1ncc2[nH]c(=O)n(Cc3ccc(-c4nc(C(F)(F)F)nn4C)cc3)c2n1` [Compound I-209, 2-(2-isopropylphenyl)-9-(4-(1-methyl-3-(trifluoromethyl)-1H-1,2,4-triazol-5-yl)benzyl)-7,9-dihydro-8H-purin-8-one], greater than 7.30; in that of `CC(C)c1ccccc1-c1ncc2[nH]c(=O)n(Cc3ccc4c(c3)CCN(C)C4=O)c2n1` [Compound I-187, 6-((2-(2-isopropylphenyl)-8-oxo-7,8-dihydro-9H-purin-9-yl)methyl)-2-methyl-3,4-dihydroisoquinolin-1(2H)-one], greater than 7.30. For the compound `Cn1cc(C(F)(F)F)nc1-c1ccc(Cn2c(=O)n(C3CC3)c3cnc(-c4cccnc4C4CC4)nc32)cc1` [Compound I-101, 7-cyclopropyl-2-(2-cyclopropylpyridin-3-yl)-9-(4-(1-methyl-4-(trifluoromethyl)-1H-imidazol-2-yl)benzyl)-7,9-dihydro-8H-purin-8-one], the pIC50 was greater than 7.30. For the compound `CC(C)c1ccccc1-c1ncc2[nH]c(=O)n(Cc3ccc(-c4ccc(CCN(C)C)cc4)cc3)c2n1` [Compound I-249, 9-((4′-(2-(dimethylamino)ethyl)-[1,1′-biphenyl]-4-yl)methyl)-2-(2-isopropylphenyl)-7,9-dihydro-8H-purin-8-one], the pIC50 is 5.70 to 6.70. In turn, `CC(C)c1ccccc1-c1ncc2c(n1)n(Cc1ccc(-c3cn(C(C)C)cn3)cc1)c(=O)n2C` [Compound I-277, 9-(4-(1-isopropyl-1H-imidazol-4-yl)benzyl)-2-(2-isopropylphenyl)-7-methyl-7,9-dihydro-8H-purin-8-one] had a negative logarithm of the IC50 (pIC50) greater than 7.30.

With `Cc1cc(C(F)(F)F)n(-c2ccc(Cn3c(=O)[nH]c4cnc(-c5cccnc5OCC(F)(F)F)nc43)cc2)n1` [Compound I-41, 9-(4-(3-methyl-5-(trifluoromethyl)-1H-pyrazol-1-yl)benzyl)-2-(2-(2,2,2-trifluoroethoxy)pyridin-3-yl)-7,9-dihydro-8H-purin-8-one], the pIC50 was 6.70 to 7.30. The figure for `CC(C)c1ccccc1-c1ncc2[nH]c(=O)n(Cc3ccc(C(=O)NC4COC4)cc3)c2n1` [Compound I-381, 4-((2-(2-isopropylphenyl)-8-oxo-7,8-dihydro-9H-purin-9-yl)methyl)-N-(oxetan-3-yl)benzamide] is 5.70 to 6.70; for `CC(C)c1ccccc1-c1ncc2c(n1)n(Cc1ccc(OCCCN(C)C)cc1)c(=O)n2C` [Compound I-234, 9-(4-(3-(dimethylamino)propoxy)benzyl)-2-(2-isopropylphenyl)-7-methyl-7,9-dihydro-8H-purin-8-one] it is less than 5.70; for `CC(C)c1c(F)cccc1-c1ncc2c(n1)n(Cc1ccc(-c3nc(C(F)(F)F)cn3C)cc1)c(=O)n2C` [Compound I-65, 2-(3-fluoro-2-isopropylphenyl)-7-methyl-9-(4-(1-methyl-4-(trifluoromethyl)-1H-imidazol-2-yl)benzyl)-7,9-dihydro-8H-purin-8-one] it is greater than 7.30. The figure for `CC(C)c1ncccc1-c1ncc2[nH]c(=O)n(Cc3c(F)cc(-c4nc(C(F)(F)F)cn4C)cc3F)c2n1` [Compound I-85, 9-(2,6-difluoro-4-(1-methyl-4-(trifluoromethyl)-1H-imidazol-2-yl)benzyl)-2-(2-isopropylpyridin-3-yl)-7,9-dihydro-8H-purin-8-one] is 6.70 to 7.30; for `CC(C)c1ncccc1-c1ncc2[nH]c(=O)n(Cc3ccc(-n4nccn4)cc3)c2n1` [Compound I-3, 9-(4-(2H-1,2,3-triazol-2-yl)benzyl)-2-(2-isopropylpyridin-3-yl)-7,9-dihydro-8H-purin-8-one] it is 5.70 to 6.70. In the case of `Cn1cc(C(F)(F)F)nc1-c1ccc(Cn2c(=O)[nH]c3cnc(-c4cccnc4OCC4CC4)nc32)cc1` [Compound I-414, 2-(2-(cyclopropylmethoxy)pyridin-3-yl)-9-(4-(1-methyl-4-(trifluoromethyl)-1H-imidazol-2-yl)benzyl)-7,9-dihydro-8H-purin-8-one] it was greater than 7.30; in that of `CC(C)c1ccccc1-c1ncc2c(n1)n(Cc1ccc(N(C)S(=O)(=O)c3nccn3C)cc1)c(=O)n2C` [Compound I-457, N-(4-((2-(2-isopropylphenyl)-7-methyl-8-oxo-7,8-dihydro-9H-purin-9-yl)methyl)phenyl)-N,1-dimethyl-1H-imidazole-2-sulfonamide], 6.70 to 7.30. In turn, `CC(C)c1ccccc1-c1ncc2[nH]c(=O)n(Cc3ccc(-n4cc(C5CC5)nn4)cc3)c2n1` [Compound I-343, 9-(4-(4-cyclopropyl-1H-1,2,3-triazol-1-yl)benzyl)-2-(2-isopropylphenyl)-7,9-dihydro-8H-purin-8-one] showed a pIC50 of 6.70 to 7.30. The figure for `Cc1cn(C(C)C)c(-c2ccc(Cn3c(=O)[nH]c4cnc(-c5ccccc5C(C)C)nc43)cc2)n1` [Compound I-537, 9-(4-(1-isopropyl-4-methyl-1H-imidazol-2-yl)benzyl)-2-(2-isopropylphenyl)-7,9-dihydro-8H-purin-8-one] is greater than 7.30.

Compound `Cc1nc(-c2ccc(Cn3c(=O)[nH]c4cnc(-c5ccccc5C(C)C)nc43)cc2)c(C)o1` [Compound I-200, 9-(4-(2,5-dimethyloxazol-4-yl)benzyl)-2-(2-isopropylphenyl)-7,9-dihydro-8H-purin-8-one] showed a pIC50 greater than 7.30. The figure for `Cc1cc(C)n([C@H]2CC[C@H](Cn3c(=O)[nH]c4cnc(-c5ccccc5C(C)C)nc43)CC2)n1` [Compound I-213, 9-(((1r,4r)-4-(3,5-dimethyl-1H-pyrazol-1-yl)cyclohexyl)methyl)-2-(2-isopropylphenyl)-7,9-dihydro-8H-purin-8-one] is 5.70 to 6.70.
